Experimental data published in ChEMBL document CHEMBL4837256, “Discovery and Characterization of a Rapidly Fungicidal and Minimally Toxic Peptoid against Cryptococcus neoformans” (ACS Med Chem Lett, 2021).
≈ marks a conversion by molar mass, not a printed value. Calls of active or inactive are those of the source. The rule behind the calls is not given here. Where a SMILES comes first, the peptide text is derived from it. [ ]: non-standard residue; d: D form. N(tridecyl)Gly = CCCCCCCCCCCCCNCC(=O)O; Gly(N-2-aminoethyl) = NCCNCC(=O)O; Gly(N-cHex) = O=C(O)CNC1CCCCC1; Nlys = NCCCCNCC(=O)O; Sar = CNCC(=O)O

Key:
[1] = Selectivity ratio of TD50 for human HepG2 cells to MIC for Cryptococcus neoformans H99S; type: toxicity
[2] = Cytotoxicity against human HepG2 cells assessed as cell death measured after 72 hrs by MTT assay; type: cell-based; settings: read-out: TD50
Cryptococcus neoformans [3] = experiment: Antifungal activity against Cryptococcus neoformans H99S assessed as inhibition of fungal growth measured after 72 hrs by Plate reader assay; type: functional
Cryptococcus neoformans [4] = experiment: Antifungal activity against Cryptococcus neoformans assessed as assessed as half life for fungal killing; type: functional, organism-based
Cryptococcus neoformans [5] = experiment: Antifungal activity against Cryptococcus neoformans H99S assessed as elimination of viable cells at 12.5 ug/ml measured after 1 hr by Plate reader assay; type: functional; settings: dose 12.5 µg/ml
[6] = Cytotoxicity against human HaCaT cells assessed as cell death measured after 72 hrs by MTT assay; type: cell-based; settings: read-out: TD50
[7] = Selectivity ratio of TD50 for human HPL1A cells to MIC for Cryptococcus neoformans H99S; type: toxicity
Lipid bilayer = experiment: Induction of membrane disruption in calcein loaded PC:PE:PS:Ergosterol (4:2:1:0.1) liposomes mimicking Cryptococcus neoformans H99S membrane assessed as increase in fluorescence intensity measured after 1 hr by liposome assay
Cryptococcus neoformans [8] = experiment: Indifferent antifungal activity against Cryptococcus neoformans H99S assessed as fractional inhibitory concentration index incubated for 72 hrs in presence of 0.25 to 16 ug/ml flucytosine by checkerboard microdilution assay; type: functional
Cryptococcus neoformans [9] = experiment: Fungicidal activity against Cryptococcus neoformans H99S assessed as fungal killing at 12.5 ug/ml measured after drug wash-out; type: functional, organism-based; settings: dose 12.5 µg/ml
Cryptococcus neoformans [10] = experiment: […] antifungal activity against Cryptococcus neoformans H99S assessed as fractional inhibitory concentration index incubated for 72 hrs in presence of 0.03 to 2 ug/ml Amphotericin B by checkerboard microdilution assay; type: functional
Cryptococcus neoformans [11] = experiment: Antifungal activity against Cryptococcus neoformans H99S assessed as half life for fungal killing at 12.5 ug/ml by Plate reader assay; type: functional, organism-based; settings: dose 12.5 µg/ml
[12] = Antifungal activity against Cryptococcus gattii R265 ATCC MYA-4093 assessed as inhibition of fungal growth measured after 72 hrs by Plate reader assay; type: functional, Cryptococcus gattii VGI
[13] = Selectivity ratio of HC10 for human RBC to MIC for Cryptococcus neoformans H99S; type: toxicity; settings: red blood cells (RBC)
Erythrocyte = experiment: Hemolytic activity in human RBC measured after 1 hr by microplate reader method; type: ADME, cell-based
Acinetobacter baumannii = experiment: Antibacterial activity against Acinetobacter baumannii ATCC 19606 assessed as inhibition of bacterial growth measured after 24 hrs by Plate reader method; type: functional; settings: ATCC 19606 = CIP 70.34 = JCM 6841
[14] = Cytotoxicity against mouse 3T3 cells assessed as cell death measured after 72 hrs by MTT assay; type: cell-based; settings: read-out: TD50
[15] = Cytotoxicity against human HPL1A cells assessed as cell death measured after 72 hrs by MTT assay; type: cell-based; settings: read-out: TD50
[16] = test system: Mycolicibacterium smegmatis; experiment: Antibacterial activity against Mycobacterium smegmatis assessed as inhibition of bacterial growth measured after 72 hrs by Plate reader method; type: functional
[17] = Antifungal activity against Cryptococcus gattii R272 ATCC MYA-4094 assessed as inhibition of fungal growth measured after 72 hrs by Plate reader assay; type: functional, Cryptococcus gattii VGI
Cryptococcus neoformans [18] = experiment: Indifferent antifungal activity against Cryptococcus neoformans H99S assessed as fractional inhibitory concentration index incubated for 72 hrs in presence of 0.5 to 32 ug/ml fluconazole by checkerboard microdilution assay; type: functional
[19] = Stability of compound assessed as trypsin-mediated compound degradation at 2 mg/ml measured after 24 hrs by RP-HPLC method; type: ADME; settings: isolated protein
Candida albicans [20] = experiment: Antifungal activity against Candida albicans ATCC10231 assessed as inhibition of fungal growth measured after 24 hrs by Plate reader assay; type: functional
Enterococcus faecalis = experiment: Antibacterial activity against Enterococcus faecalis ATCC 29212 assessed as inhibition of bacterial growth measured after 24 hrs by Plate reader method; type: functional
Staphylococcus aureus = experiment: Antibacterial activity against Staphylococcus aureus ATCC 29213 assessed as inhibition of bacterial growth measured after 24 hrs by Plate reader method; type: functional
Pseudomonas aeruginosa = experiment: Antibacterial activity against Pseudomonas aeruginosa ATCC 25619 assessed as inhibition of bacterial growth measured after 24 hrs by Plate reader method; type: functional
[21] = Selectivity ratio of TD50 for mouse 3T3 cells to MIC for Cryptococcus neoformans H99S; type: toxicity
Cryptococcus neoformans [22] = experiment: Antifungal activity against Cryptococcus neoformans H99S assessed as dead cells at 12.5 ug/ml measured after 30 mins by time-to-kill assay; type: functional; settings: dose 12.5 µg/ml, 0.5 h
[23] = Selectivity ratio of TD50 for human HaCaT cells to MIC for Cryptococcus neoformans H99S; type: toxicity
Escherichia coli = experiment: Antibacterial activity against Escherichia coli ATCC 25922 assessed as inhibition of bacterial growth measured after 24 hrs by Plate reader method; type: functional
Klebsiella pneumoniae = experiment: Antibacterial activity against Klebsiella pneumoniae ATCC 13883 assessed as inhibition of bacterial growth measured after 24 hrs by Plate reader method; type: functional
Candida albicans [24] = experiment: Antifungal activity against Candida albicans ATCC10231 assessed as inhibition of biofilm formation measured after 24 hrs by fluorescence based plate reader assay; type: functional
Enterococcus faecium = experiment: Antibacterial activity against Enterococcus faecium ATCC 6569 assessed as inhibition of bacterial growth measured after 24 hrs by Plate reader method; type: functional
Cryptococcus neoformans [25] = experiment: Antifungal activity against Cryptococcus neoformans H99S assessed as inhibition of fungal growth preincubated with human serum for 1 hr followed by incubation with fungus and measured after 72 hrs by Plate reader method; type: functional; settings: time 73 hrs
[26] = Selectivity ratio of MIC for Cryptococcus gattii R272 ATCC MYA-4094 to MIC for Cryptococcus neoformans H99S measured after 72 hrs by Plate reader assay; type: functional
[27] = Selectivity ratio of MIC for Cryptococcus gattii R265 ATCC MYA-4093 to MIC for Cryptococcus neoformans H99S measured after 72 hrs by Plate reader assay; type: functional
[28] = Protein binding in human serum at 100 ug/ml measured after 24 hrs by RP-HPLC method; type: ADME, cell-free; settings: at 100 µg/mL

## CCCCCCCCCCCCCNCC(=O)N(CC(=O)N(C)CC(=O)N(CCN)CC(=O)N(CC(N)=O)C1CCCCC1)C1CCCCC1
[1]
  selectivity ratio: 27
[2]
  CC50 at 72 h: 83 µg/mL (≈ 118 µM)
Cryptococcus neoformans [3]
  MIC: 3.13 µg/mL (≈ 4.43 µM)

## CCCCCCCCCCCCCNCC(=O)N(CCCCN)CC(=O)N(CC(N)=O)Cc1ccco1
Cryptococcus neoformans [4]
  T1/2: 30 min

## CCCCCCCCCCCCCNCC(=O)N(CC(=O)N(CCCCN)CC(=O)N(CCN)CC(=O)N(CC(N)=O)C1CCCCC1)C1CCCCC1 (H-[N(tridecyl)Gly][Gly(N-cHex)][Nlys][Gly(N-2-aminoethyl)][Gly(N-cHex)]-NH2)
Cryptococcus neoformans [5]
  Activity: 100%
[6]
  CC50 at 72 h: 54 µg/mL (≈ 70.8 µM)
[7]
  selectivity ratio: 47
Lipid bilayer
  Activity: Active
Cryptococcus neoformans [8]
  fractional inhibitory concentration index (FICI): 2
Cryptococcus neoformans [9]
  Activity: Active
Cryptococcus neoformans [10]
  fractional inhibitory concentration index (FICI): 0.75
Cryptococcus neoformans [11]
  T1/2: 6.5 min
[12]
  MIC: 3.13 µg/mL (≈ 4.1 µM)
[13]
  selectivity ratio: 49
Erythrocyte
  HC10: 77 µg/mL
Acinetobacter baumannii
  MIC: 25 µg/mL (≈ 32.8 µM)
[14]
  CC50 at 72 h: 59 µg/mL (≈ 77.3 µM)
[15]
  CC50 at 72 h: 74 µg/mL (≈ 97 µM)
[16]
  MIC: 3.13 µg/mL (≈ 4.1 µM)
[17]
  MIC: 3.13 µg/mL (≈ 4.1 µM)
Cryptococcus neoformans [18]
  fractional inhibitory concentration index (FICI): 2
[19]
  Stabilty: Stable
Candida albicans [20]
  MIC: 25 µg/mL (≈ 32.8 µM)
[1]
  selectivity ratio: 120
Enterococcus faecalis
  MIC: 6.25 µg/mL (≈ 8.19 µM)
Staphylococcus aureus
  MIC: 6.25 µg/mL (≈ 8.19 µM)
Pseudomonas aeruginosa
  MIC: 100 µg/mL (≈ 131 µM)
[21]
  selectivity ratio: 38
Cryptococcus neoformans [22]
  Activity: >50%
[23]
  selectivity ratio: 35
Escherichia coli
  MIC: 12.5 µg/mL (≈ 16.4 µM)
Klebsiella pneumoniae
  MIC: 100 µg/mL (≈ 131 µM)
Candida albicans [24]
  MIC: 100 µg/mL (≈ 131 µM)
Enterococcus faecium
  MIC: 6.25 µg/mL (≈ 8.19 µM)
Cryptococcus neoformans [25]
  MIC: 3.13 µg/mL (≈ 4.1 µM)
[26]
  Selectivity ratio: 2
[27]
  Selectivity ratio: 2
[2]
  CC50 at 72 h: 189 µg/mL (≈ 248 µM)
[28]
  PB: Not Active
Cryptococcus neoformans [3]
  MIC: 1.56 µg/mL (≈ 2.04 µM)

## CCCCCCCCCCCCCNCC(=O)N(CC(=O)N(CCCCN)CC(=O)N(CCN)CC(=O)N(C)CC(N)=O)C1CCCCC1 (H-[N(tridecyl)Gly][Gly(N-cHex)][Nlys][Gly(N-2-aminoethyl)][Sar]-NH2)
[2]
  CC50 at 72 h: > 200 µg/mL
Cryptococcus neoformans [3]
  MIC: 6.25 µg/mL (≈ 8.99 µM)

## CCCCCCCCCCCCCNCC(=O)N(CC(=O)N(CCCCN)CC(=O)N(C)CC(=O)N(CC(N)=O)C1CCCCC1)C1CCCCC1 (H-[N(tridecyl)Gly][Gly(N-cHex)][Nlys][Sar][Gly(N-cHex)]-NH2)
[1]
  selectivity ratio: 27
[2]
  CC50 at 72 h: 84 µg/mL (≈ 114 µM)
Cryptococcus neoformans [3]
  MIC: 3.13 µg/mL (≈ 4.26 µM)

## CCCCCCCCCCCCCNCC(=O)N(C)CC(=O)N(CCCCN)CC(=O)N(CCN)CC(=O)N(CC(N)=O)C1CCCCC1 (H-[N(tridecyl)Gly][Sar][Nlys][Gly(N-2-aminoethyl)][Gly(N-cHex)]-NH2)
[2]
  CC50 at 72 h: > 200 µg/mL
Cryptococcus neoformans [3]
  MIC: 6.25 µg/mL (≈ 8.99 µM)

## CNCC(=O)N(CC(=O)N(CCCCN)CC(=O)N(CCN)CC(=O)N(CC(N)=O)C1CCCCC1)C1CCCCC1 (H-[Sar][Gly(N-cHex)][Nlys][Gly(N-2-aminoethyl)][Gly(N-cHex)]-NH2)
[2]
  CC50 at 72 h: > 200 µg/mL
Cryptococcus neoformans [3]
  MIC: > 50 µg/mL

## C[C@@H]1[C@H](O)[C@@H](C)/C=C/C=C/C=C/C=C/C=C/C=C/C=C/[C@H](O[C@@H]2O[C@H](C)[C@@H](O)[C@H](N)[C@@H]2O)C[C@@H]2O[C@](O)(C[C@@H](O)C[C@@H](O)[C@H](O)CC[C@@H](O)C[C@@H](O)CC(=O)O[C@H]1C)C[C@H](O)[C@H]2C(=O)O [AMPHOTERICIN B]
Cryptococcus neoformans [4]
  T1/2: 240 min
Cryptococcus neoformans [3]
  MIC: 0.25 µg/mL (≈ 0.271 µM)

## OC(Cn1cncn1)(Cn1cncn1)c1ccc(F)cc1F [FLUCONAZOLE]
Cryptococcus neoformans [3]
  MIC: 2 µg/mL (≈ 6.53 µM)

## Nc1nc(=O)[nH]cc1F [FLUCYTOSINE]
Cryptococcus neoformans [3]
  MIC: 2 µg/mL (≈ 15.5 µM)
